The results in this text go back to ChEMBL document CHEMBL4699612, “Discovery of thiosemicarbazone-containing compounds with potent anti-proliferation activity against drug-resistant K562/A02 cells” (Bioorg Med Chem Lett, 2020).

In one test the test system is K562. Kind of test: Antiproliferative activity against human K562 cells by MTT assay. It counts as functional, cell-based.
The subject of another test is K562/A02. Kind of test: Antiproliferative activity against human K562/A02 cells overexpressing P-gp by MTT assay. It counts as functional, cell-based.
Test [1] in a line: Resistance index, ratio of IC50 for human K562/A02 cells to IC50 for human K562 cells. The format is functional. Set-up: reference not given here.
The next test has as its target Histone deacetylase 1 (Homo sapiens, UniProt Q13547). Kind of test: Inhibition of recombinant human HDAC1 using Boc-Lys(Ac)-AMC as substrate incubated for 60 mins by fluorimetric assay.
The target in test [2] is T1, Protein deacetylase HDAC6 (Homo sapiens, UniProt Q9UBN7).
T1 sequence (Q9UBN7 whole entry): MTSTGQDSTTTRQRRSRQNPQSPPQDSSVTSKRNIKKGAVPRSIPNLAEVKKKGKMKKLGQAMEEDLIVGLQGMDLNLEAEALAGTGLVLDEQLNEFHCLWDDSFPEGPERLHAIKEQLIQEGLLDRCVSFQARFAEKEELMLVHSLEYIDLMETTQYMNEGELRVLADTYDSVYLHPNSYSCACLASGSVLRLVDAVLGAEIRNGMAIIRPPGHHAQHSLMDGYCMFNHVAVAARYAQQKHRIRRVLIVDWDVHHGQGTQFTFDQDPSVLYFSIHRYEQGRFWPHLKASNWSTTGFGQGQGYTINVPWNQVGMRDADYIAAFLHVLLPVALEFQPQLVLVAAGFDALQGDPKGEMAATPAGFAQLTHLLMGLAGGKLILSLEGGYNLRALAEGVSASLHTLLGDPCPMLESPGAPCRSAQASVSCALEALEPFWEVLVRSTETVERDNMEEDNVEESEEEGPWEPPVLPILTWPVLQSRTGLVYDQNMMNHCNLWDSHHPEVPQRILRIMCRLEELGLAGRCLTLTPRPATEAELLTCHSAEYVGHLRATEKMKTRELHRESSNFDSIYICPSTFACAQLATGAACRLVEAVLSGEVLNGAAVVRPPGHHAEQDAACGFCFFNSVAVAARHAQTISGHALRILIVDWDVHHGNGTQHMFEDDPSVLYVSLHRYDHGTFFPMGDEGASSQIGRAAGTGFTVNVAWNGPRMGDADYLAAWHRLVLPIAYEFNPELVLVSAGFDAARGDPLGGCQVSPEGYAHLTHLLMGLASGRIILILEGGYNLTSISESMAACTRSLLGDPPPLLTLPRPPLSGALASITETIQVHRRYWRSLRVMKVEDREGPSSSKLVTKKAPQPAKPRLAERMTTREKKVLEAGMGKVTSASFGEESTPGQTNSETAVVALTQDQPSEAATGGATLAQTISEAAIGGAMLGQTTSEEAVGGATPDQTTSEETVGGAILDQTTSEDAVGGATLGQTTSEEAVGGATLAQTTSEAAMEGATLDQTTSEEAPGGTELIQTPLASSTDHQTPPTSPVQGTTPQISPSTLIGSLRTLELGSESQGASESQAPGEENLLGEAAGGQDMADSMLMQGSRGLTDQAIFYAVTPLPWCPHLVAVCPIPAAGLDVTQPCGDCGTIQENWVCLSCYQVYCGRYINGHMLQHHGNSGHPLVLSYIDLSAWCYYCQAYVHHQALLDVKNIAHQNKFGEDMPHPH
Description: Inhibition of recombinant human HDAC6 using Boc-Lys(Ac)-AMC as substrate incubated for 60 mins by fluorimetric assay.

A further test deals with T2, Histone deacetylase 8 (Homo sapiens, UniProt Q9BY41).
T2 sequence (Q9BY41 whole entry): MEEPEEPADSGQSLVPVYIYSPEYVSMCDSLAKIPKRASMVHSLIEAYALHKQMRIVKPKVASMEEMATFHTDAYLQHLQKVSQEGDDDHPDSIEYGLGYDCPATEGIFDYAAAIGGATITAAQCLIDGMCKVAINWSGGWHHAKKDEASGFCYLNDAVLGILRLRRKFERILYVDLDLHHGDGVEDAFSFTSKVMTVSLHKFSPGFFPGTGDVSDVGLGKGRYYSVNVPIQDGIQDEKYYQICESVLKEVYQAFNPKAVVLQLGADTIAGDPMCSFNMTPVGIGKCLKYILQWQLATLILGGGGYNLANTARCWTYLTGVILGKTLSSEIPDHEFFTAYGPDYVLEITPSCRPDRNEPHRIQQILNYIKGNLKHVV
Description: Inhibition of recombinant human HDAC8 using Boc-Lys(Ac)-AMC as substrate incubated for 60 mins by fluorimetric assay.

Chain of Histone deacetylase 1 (Q13547 whole entry): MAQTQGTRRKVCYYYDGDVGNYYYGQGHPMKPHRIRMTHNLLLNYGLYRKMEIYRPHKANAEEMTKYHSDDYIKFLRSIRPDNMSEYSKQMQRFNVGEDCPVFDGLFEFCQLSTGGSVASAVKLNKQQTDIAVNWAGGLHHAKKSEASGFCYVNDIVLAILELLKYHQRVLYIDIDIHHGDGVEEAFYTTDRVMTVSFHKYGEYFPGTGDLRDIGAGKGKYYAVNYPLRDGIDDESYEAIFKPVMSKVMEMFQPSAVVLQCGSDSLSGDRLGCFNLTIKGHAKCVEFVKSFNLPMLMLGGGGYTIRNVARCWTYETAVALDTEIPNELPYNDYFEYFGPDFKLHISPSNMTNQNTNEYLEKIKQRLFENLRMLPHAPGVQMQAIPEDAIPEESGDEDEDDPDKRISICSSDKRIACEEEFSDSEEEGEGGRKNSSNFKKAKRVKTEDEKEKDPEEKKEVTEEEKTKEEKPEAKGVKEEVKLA

For `O=C(CCCCCNC(=S)N/N=C(\c1ccccc1)c1ccccn1)NO`, the IC50 with K562 is 2140 nM; in the test on K562/A02, 2030 nM. Further, in test [1], the “Ratio IC50” value is 0.95.

Consider `C/C(=N\NC(=S)NCCCC(=O)NO)c1cccc([N+](=O)[O-])c1`, for which the IC50 in the test with K562 and in the test with K562/A02 was greater than 10000 nM throughout.

`O=C(CCCCCNC(=S)NN=C(c1ccccc1)c1ccccc1)NO`: the IC50 in the test with K562 is 3810 nM; in the test with K562/A02 it was 3640 nM. Moreover, the “Ratio IC50” value in test [1] is 0.96.

Consider `O=C(CCCCCNC(=S)NN=C(c1ccccn1)c1ccccn1)NO`, for which the figures for the IC50 in the test with K562 and with K562/A02 were 2870 nM and 2180 nM, respectively. Moreover, in test [1], the “Ratio IC50” value came out at 0.76.

Regarding `O=C(CCCCCCC(=O)Nc1ccccc1)NO` [VORINOSTAT], in the test on K562/A02, the IC50 was found to be 3130 nM.

Turning to `COc1ccccc1/C(C)=N/NC(=S)NCCCC(=O)NO`, the IC50 in the test on K562 and with K562/A02 was greater than 10000 nM throughout.

Take `O=C(CCCCCNC(=S)N/N=C(\c1ccccc1)c1ccccc1[N+](=O)[O-])NO`: the IC50 is 2330 nM in the test with K562 and 1310 nM with K562/A02. Moreover, the “Ratio IC50” value in test [1] is 0.56.

Regarding `C/C(=N\NC(=S)NCCCCCC(=O)NO)c1cccc(C(F)(F)F)c1`, the IC50 turned out to be 1400 nM in the test on K562 and 890 nM in the test with K562/A02. In addition, the “Ratio IC50” value in test [1] is given as 0.64.

Take `CN(C)C(=S)NN=C(c1ccccn1)c1ccccn1`: the 50% inhibitory concentration (IC50) was 3430 nM in the test on K562; 3020 nM in the test on K562/A02; greater than 5000 nM at Histone deacetylase 1; greater than 5000 nM in test [2]; greater than 5000 nM at Histone deacetylase 8. The “Ratio IC50” value in test [1] was 0.88.

As for `Cc1ccc(/C(=N/NC(=S)NCCCCCC(=O)NO)c2ccccc2)cc1`, the IC50 in the test with K562 turned out to be 4340 nM; in the test with K562/A02, 3150 nM. Further, the “Ratio IC50” value in test [1] is on record as 0.73.

For the compound `COc1cccc(/C(C)=N/NC(=S)NCCCCCC(=O)NO)c1`, the figures for the concentration for half-maximal inhibition (IC50) in the test with K562 and in the test with K562/A02 were 1910 nM and 1890 nM, respectively. The “Ratio IC50” value in test [1] turned out to be 0.98.

Regarding `Cc1ccc(NC(=O)c2ccc(CN3CCN(C)CC3)cc2)cc1Nc1nccc(-c2cccnc2)n1` [IMATINIB], the IC50 in the test on K562 turned out to be 610 nM; in the test on K562/A02 it was 980 nM. Also, in test [1], the “Ratio IC50” value is recorded as 1.61.

Turning to `O=C(CCCCCNC(=S)N/N=C(\c1ccccc1)c1ccc([N+](=O)[O-])cc1)NO`, the concentration for half-maximal inhibition (IC50) is 2890 nM with K562 and 4530 nM with K562/A02. Further, in test [1], the “Ratio IC50” value amounted to 1.57.

As for `C/C(=N\NC(=S)NCCCCCC(=O)NO)c1cccc(C)c1`, the IC50 with K562 stood at 3840 nM; in the test with K562/A02, 3570 nM. In addition, the “Ratio IC50” value in test [1] was determined as 0.93.

Regarding `Cc1ccccc1/C(=N/NC(=S)NCCCCCC(=O)NO)c1ccccc1`, the IC50 in the test with K562 is 3510 nM; in the test with K562/A02, 4220 nM. Moreover, the “Ratio IC50” value in test [1] worked out at 1.2.

As to `C/C(=N\NC(=S)NCCCC(=O)NO)c1ccc([N+](=O)[O-])cc1`, the IC50 in the test with K562 and in the test on K562/A02 was greater than 10000 nM in each case.

With `COc1cccc2c1C(=O)c1c(O)c3c(c(O)c1C2=O)C[C@@](O)(C(=O)CO)C[C@@H]3O[C@H]1C[C@H](N)[C@H](O)[C@H](C)O1.Cl` [DOXORUBICIN HYDROCHLORIDE], the IC50 was found to be 830 nM in the test on K562 and 23400 nM with K562/A02. Also, in test [1], the “Ratio IC50” value is recorded as 28.21.

Turning to `O=C(CCCCCNC(=S)N/N=C(\c1ccccc1)c1cccc([N+](=O)[O-])c1)NO`, the half-inhibitory concentration (IC50) was 1630 nM with K562; 940 nM with K562/A02; 71.1 nM on Histone deacetylase 1; 46.8 nM in test [2]; greater than 5000 nM at Histone deacetylase 8. Besides, the “Ratio IC50” value in test [1] is reported as 0.58.

As to `C/C(=N\NC(=S)NCCCCCC(=O)NO)c1cccc(Br)c1`, the IC50 in the test with K562 is 1260 nM; with K562/A02, 520 nM; at Histone deacetylase 1, 54.6 nM; in test [2], 37.7 nM; on Histone deacetylase 8, greater than 5000 nM. For the same compound, the “Ratio IC50” value in test [1] came out at 0.41.

`C/C(=N\NC(=S)NCCCCCC(=O)NO)c1ccc(F)cc1`: the IC50 in the test on K562 was 1890 nM; in the test on K562/A02, 1020 nM; on Histone deacetylase 1 it was 69.2 nM; in test [2], 62.9 nM; on Histone deacetylase 8, greater than 5000 nM. Besides, the “Ratio IC50” value in test [1] was 0.54.

Turning to `O=C(CCCCCNC(=S)N/N=C(\c1ccccc1)c1ccccc1F)NO`, the values for the IC50 in the test with K562 and with K562/A02 were 4630 nM and 6010 nM, respectively. Also, in test [1], the “Ratio IC50” value was 1.3.

With `COc1ccccc1/C(=N/NC(=S)NCCCCCC(=O)NO)c1ccccc1`, the IC50 is 3560 nM with K562 and 2910 nM in the test on K562/A02. Moreover, the “Ratio IC50” value in test [1] was 0.82.
